Laboratory results published in US10131652B2, “Pyrimidinyloxy benzene derivatives as herbicides” (E. I. DU PONT DE NEMOURS AND COMPANY, priority 2014, dated 2018).
Read-outs that look alike come from different tables or passages of the source.

Key:
Test in all cases: Test D pre-/postemergence plant response
Format in all cases: in vivo
[1] = test system: Italian ryegrass (Lolium multiflorum); settings: Lolium multiflorum; for pest or weed control at 31 g/ha: 31 g ai/ha; for pest or weed control at 62 g/ha: 62 g ai/ha; for pest or weed control at 125 g/ha: 125 g ai/ha; for pest or weed control at 250 g/ha: 250 g ai/ha
Procedure, shortened: (§1)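 Ratings were visual, 0 = no effect to 100 = complete control, taken against untreated controls after 13 to 15 days in a greenhouse. Chemicals, formulated in non-phytotoxic surfactant-containing solvent, went onto soil (loam/sand) at planting for preemergence, or onto 1- to 4-leaf plants (2–18 cm) for postemergence.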

[2] = test system: barnyardgrass (Echinochloa crus-galli); settings: Echinochloa crus-galli; for pest or weed control at 31 g/ha: 31 g ai/ha, scale 0 to 100 (0 no effect, 100 complete control); for pest or weed control at 62 g/ha: 62 g ai/ha; for pest or weed control at 125 g/ha: 125 g ai/ha; for pest or weed control at 250 g/ha: 250 g ai/ha
Procedure, shortened: as §1

[3] = test system: blackgrass (Alopecurus myosuroides); settings: Alopecurus myosuroides; for pest or weed control at 31 g/ha: 31 g ai/ha; for pest or weed control at 62 g/ha: 62 g ai/ha; for pest or weed control at 125 g/ha: 125 g ai/ha; for pest or weed control at 250 g/ha: 250 g ai/ha
Procedure, shortened: as §1

corn (Zea mays) = settings: Zea mays; for Corn plant response rating (crop injury, 0 = no effect, 100 = complete kill) at 62 g/ha: 62 g ai/ha
Procedure, shortened: as §1

[4] = test system: galium (catchweed bedstraw, Galium aparine); settings: Galium; for pest or weed control at 31 g/ha: 31 g ai/ha; for pest or weed control at 62 g/ha: 62 g ai/ha; for pest or weed control at 125 g/ha: 125 g ai/ha; for pest or weed control at 250 g/ha: 250 g ai/ha
Procedure, shortened: as §1

[5] = test system: giant foxtail (Setaria faberii); settings: Setaria faberi; for pest or weed control at 31 g/ha: 31 g ai/ha; for pest or weed control at 62 g/ha: 62 g ai/ha; for pest or weed control at 125 g/ha: 125 g ai/ha; for pest or weed control at 250 g/ha: 250 g ai/ha
Procedure, shortened: as §1

[6] = test system: johnsongrass (Sorghum halepense); settings: Sorghum halepense; for pest or weed control at 31 g/ha: 31 g ai/ha; for pest or weed control at 62 g/ha: 62 g ai/ha; for pest or weed control at 125 g/ha: 125 g ai/ha; for pest or weed control at 250 g/ha: 250 g ai/ha
Procedure, shortened: as §1

[7] = test system: lambsquarters (Chenopodium album); settings: Chenopodium album; for pest or weed control at 31 g/ha: 31 g ai/ha; for pest or weed control at 62 g/ha: 62 g ai/ha; for pest or weed control at 125 g/ha: 125 g ai/ha; for pest or weed control at 250 g/ha: 250 g ai/ha
Procedure, shortened: as §1

[8] = test system: large (Lg) crabgrass (Digitaria sanguinalis); settings: Digitaria sanguinalis; for pest or weed control at 31 g/ha: 31 g ai/ha; for pest or weed control at 62 g/ha: 62 g ai/ha; for pest or weed control at 125 g/ha: 125 g ai/ha; for pest or weed control at 250 g/ha: 250 g ai/ha
Procedure, shortened: as §1

[9] = post-emergence, Postemergence, scale 0 to 100, 0 no effect, 100 complete control, read-out: Plant response rating, Ryegrass, Italian
[10] = pre-emergence, Preemergence, read-out: Plant response rating (scale 0 to 100), Ryegrass, Italian
[11] = pre-emergence, Preemergence, scale 0 to 100 (0 no effect, 100 complete control), read-out: Plant response rating, Ryegrass, Italian
[12] = post-emergence, Postemergence, scale 0 to 100, 0 no effect, 100 complete control, read-out: Plant response rating, Barnyardgrass
[13] = pre-emergence, Preemergence, read-out: Plant response rating (scale 0 to 100), Barnyardgrass
[14] = post-emergence, Postemergence, scale 0 to 100, 0 no effect, 100 complete control, read-out: Plant response rating, Blackgrass
[15] = pre-emergence, Preemergence, read-out: Plant response rating (scale 0 to 100), Blackgrass
[16] = pre-emergence, Preemergence, scale 0 to 100 (0 no effect, 100 complete control), read-out: Plant response rating, Blackgrass
[17] = post-emergence, Postemergence, scale 0 to 100, 0 no effect, 100 complete control, read-out: Plant response rating, Galium
[18] = pre-emergence, Preemergence, read-out: Plant response rating (scale 0 to 100), Galium
[19] = pre-emergence, Preemergence, scale 0 to 100 (0 no effect, 100 complete control), read-out: Plant response rating, Galium
[20] = post-emergence, Postemergence, scale 0 to 100, 0 no effect, 100 complete control, read-out: Plant response rating, Foxtail, Giant
[21] = pre-emergence, Preemergence, read-out: Plant response rating (scale 0 to 100), Foxtail, Giant
[22] = pre-emergence, Preemergence, scale 0 to 100 (0 no effect, 100 complete control), read-out: Plant response rating, Foxtail, Giant
[23] = post-emergence, Postemergence, scale 0 to 100, 0 no effect, 100 complete control, read-out: Plant response rating, Johnsongrass
[24] = pre-emergence, Preemergence, read-out: Plant response rating (scale 0 to 100), Johnsongrass
[25] = pre-emergence, Preemergence, scale 0 to 100 (0 no effect, 100 complete control), read-out: Plant response rating, Johnsongrass
[26] = post-emergence, Postemergence, scale 0 to 100, 0 no effect, 100 complete control, read-out: Plant response rating, Lambsquarters
[27] = pre-emergence, Preemergence, read-out: Plant response rating (scale 0 to 100), Lambsquarters
[28] = pre-emergence, Preemergence, scale 0 to 100 (0 no effect, 100 complete control), read-out: Plant response rating, Lambsquarters
[29] = post-emergence, Postemergence, scale 0 to 100, 0 no effect, 100 complete control, read-out: Plant response rating, Crabgrass, Large
[30] = pre-emergence, Preemergence, read-out: Plant response rating (scale 0 to 100), Crabgrass, Large
[31] = pre-emergence, Preemergence, scale 0 to 100 (0 no effect, 100 complete control), read-out: Plant response rating, Crabgrass, Large

FC(F)c1cc(-c2ccccc2Oc2ncc(Br)cn2)no1 [Compound 62, 5-bromo-2-[2-[5-(difluoromethyl)-3-isoxazolyl]phenoxy]pyrimidine]
pest or weed control at 31 g/ha ([1]; post-emergence, Postemergence, scale 0 to 100 (0 no effect, 100 complete control), read-out: Ryegrass, Italian plant response rating): 5% | pest or weed control at 62 g/ha [1, 9]: 5% | pest or weed control at 125 g/ha [1, 9]: 30% | pest or weed control at 250 g/ha [1, 9]: 40% | pest or weed control at 125 g/ha [1, 10]: 90% | pest or weed control at 250 g/ha [1, 10]: 95% | pest or weed control at 31 g/ha [1, 11]: 40% | pest or weed control at 62 g/ha [1, 11]: 60% | pest or weed control at 31 g/ha ([2]; post-emergence, Postemergence, read-out: Barnyardgrass plant response rating): 50% | pest or weed control at 62 g/ha [2, 12]: 35% | pest or weed control at 125 g/ha [2, 12]: 30% | pest or weed control at 250 g/ha [2, 12]: 95% | pest or weed control at 62 g/ha [2, 13]: 98% | pest or weed control at 125 g/ha [2, 13]: 100% | pest or weed control at 250 g/ha [2, 13]: 100% | pest or weed control at 31 g/ha ([2]; pre-emergence, Preemergence, read-out: Plant response rating, Barnyardgrass): 50% | pest or weed control at 31 g/ha ([3]; post-emergence, Postemergence, scale 0 to 100 (0 no effect, 100 complete control), read-out: Blackgrass plant response rating): 20% | pest or weed control at 62 g/ha [3, 14]: 25% | pest or weed control at 125 g/ha [3, 14]: 40% | pest or weed control at 250 g/ha [3, 14]: 60% | pest or weed control at 125 g/ha [3, 15]: 90% | pest or weed control at 250 g/ha [3, 15]: 90% | pest or weed control at 31 g/ha [3, 16]: 5% | pest or weed control at 62 g/ha [3, 16]: 90% | plant injury at 31 g/ha (corn (Zea mays); post-emergence, Postemergence, 31 g ai/ha, scale 0 to 100 (0 no effect, 100 complete control), read-out: Corn plant response rating): 10% | Corn plant response rating (crop injury, 0 = no effect, 100 = complete kill) at 62 g/ha (corn (Zea mays); post-emergence, Postemergence, scale 0 to 100, 0 no effect, 100 complete control): 10% | Corn plant response rating (crop injury, 0 = no effect, 100 = complete kill) at 125 g/ha (corn (Zea mays); post-emergence, Postemergence, 125 g ai/ha, scale 0 to 100, 0 no effect, 100 complete control): 15% | Corn plant response rating (crop injury, 0 = no effect, 100 = complete kill) at 250 g/ha (corn (Zea mays); post-emergence, Postemergence, 250 g ai/ha, scale 0 to 100, 0 no effect, 100 complete control): 10% | plant injury at 125 g/ha (corn (Zea mays); pre-emergence, Preemergence, 125 g ai/ha, read-out: Plant response rating (scale 0 to 100), Corn): 60% | plant injury at 250 g/ha (corn (Zea mays); pre-emergence, Preemergence, 250 g ai/ha, read-out: Plant response rating (scale 0 to 100), Corn): 70% | Corn plant response rating (crop injury, 0 = no effect, 100 = complete kill) at 31 g/ha (corn (Zea mays); pre-emergence, Preemergence, 31 g ai/ha, scale 0 to 100 (0 no effect, 100 complete control)): 35% | Corn plant response rating (crop injury, 0 = no effect, 100 = complete kill) at 62 g/ha (corn (Zea mays); pre-emergence, Preemergence, scale 0 to 100 (0 no effect, 100 complete control)): 30% | pest or weed control at 31 g/ha ([4]; post-emergence, Postemergence, scale 0 to 100 (0 no effect, 100 complete control), read-out: Galium plant response rating): 85% | pest or weed control at 62 g/ha [4, 17]: 85% | pest or weed control at 125 g/ha [4, 17]: 100% | pest or weed control at 250 g/ha [4, 17]: 100% | pest or weed control at 125 g/ha [4, 18]: 100% | pest or weed control at 250 g/ha [4, 18]: 100% | pest or weed control at 31 g/ha [4, 19]: 100% | pest or weed control at 62 g/ha [4, 19]: 100% | pest or weed control at 31 g/ha ([5]; post-emergence, Postemergence, scale 0 to 100 (0 no effect, 100 complete control), read-out: Foxtail, Giant plant response rating): 25% | pest or weed control at 62 g/ha [5, 20]: 25% | pest or weed control at 125 g/ha [5, 20]: 20% | pest or weed control at 250 g/ha [5, 20]: 55% | pest or weed control at 125 g/ha [5, 21]: 100% | pest or weed control at 250 g/ha [5, 21]: 100% | pest or weed control at 31 g/ha [5, 22]: 95% | pest or weed control at 62 g/ha [5, 22]: 100% | pest or weed control at 31 g/ha ([6]; post-emergence, Postemergence, scale 0 to 100 (0 no effect, 100 complete control), read-out: Johnsongrass plant response rating): 25% | pest or weed control at 62 g/ha [6, 23]: 25% | pest or weed control at 125 g/ha [6, 23]: 75% | pest or weed control at 250 g/ha [6, 23]: 85% | pest or weed control at 125 g/ha [6, 24]: 90% | pest or weed control at 250 g/ha [6, 24]: 98% | pest or weed control at 31 g/ha [6, 25]: 30% | pest or weed control at 62 g/ha [6, 25]: 75% | pest or weed control at 31 g/ha ([7]; post-emergence, Postemergence, scale 0 to 100 (0 no effect, 100 complete control), read-out: Lambsquarters plant response rating): 98% | pest or weed control at 62 g/ha [7, 26]: 98% | pest or weed control at 125 g/ha [7, 26]: 100% | pest or weed control at 250 g/ha [7, 26]: 100% | pest or weed control at 125 g/ha [7, 27]: 98% | pest or weed control at 250 g/ha [7, 27]: 100% | pest or weed control at 31 g/ha [7, 28]: 100% | pest or weed control at 62 g/ha [7, 28]: 95% | pest or weed control at 31 g/ha ([8]; post-emergence, Postemergence, scale 0 to 100 (0 no effect, 100 complete control), read-out: Crabgrass, Large plant response rating): 55% | pest or weed control at 62 g/ha [8, 29]: 35% | pest or weed control at 125 g/ha [8, 29]: 50% | pest or weed control at 250 g/ha [8, 29]: 65% | pest or weed control at 125 g/ha [8, 30]: 100% | pest or weed control at 250 g/ha [8, 30]: 100% | pest or weed control at 31 g/ha [8, 31]: 95% | pest or weed control at 62 g/ha [8, 31]: 100%
